“Also recorded” adds a separate entry of the source.
Key:
hippocampal neurons [1] = experiment: FUNCAT (AHA/Alexa-488) protein translation in hippocampal neurons; assay type: cell-based, rat; conditions: for level of de novo protein synthesis (fluorescence intensity): hippocampal neurons, soma and dendrites; for dose (as low as) at which protein synthesis was significantly increased: hippocampal neuron somas and dendrites
Description: Objective. To test whether Lrrk2 regulated ribosomal function in neurons, we measured the effect of three structurally independent inhibitors of Lrrk2 on de novo protein synthesis using non-canonical amino acid labeling. Rat hippocampal neurons were labelled using L-azido-homoalanine (AHA), a methionine analogue, followed by copper-I-catalyzed alkyne-azide cycloaddition of Alexa-488 with an alkyne moiety to visualize newly synthesized proteins, as previously de-scribed^8.
Methods. Measuring protein translation in hippocampal neurons using FUNCAT. To measure protein translation, hippocampal neurons were plated at densities of 100,000 cells per well on round coverslips (1.3 cm diameter) in 24-well plates. Protein translation was measured following 20 h after plating. Cells were washed once and incubated with methionine-free DMEM medium (Gibco, Thermo Fisher Scientific) supplemented with 2 mM glutamine. Then 1 mM L-azidohomoalanine (AHA) was added for 30 min. Cells were washed with 1 ml PBS and fixed with 4% paraformaldehyde. LRRK2 inhibitors, when used, were added in the methionine-free medium and retained throughout the AHA labelling procedure. Cells were permeabilized in block solution (0.25% Triton X100, 0.2% BSA, 5% sucrose, 10% horse serum in PBS), and washed 5 times with 1 ml of 3% BSA in PBS. In situ labeling with AHA was achieved using a click-it reaction to covalently Alexa-488, using reagents from ThermoFisher Life Technologies (catalogue #A10267). Coverslips were mounted in Mowiol containing 2.5% 1,4-Diazabicyclo[2.2.2]octane. Fluorescent images were acquired using a Leica DMRE microscope and Hamamatsu Photonics ORCA C4742-95 CCD camera and Zen software (Carl Zeiss). Mean fluorescence intensities were measured from regions of interest in the perisomal region. Dendrite measurements were taken from line intensities (10 μm lines from the soma into the dendrite).

dopaminergic neurons [2] = experiment: FUNCAT protein translation in midbrain cultures (dopaminergic neurons); assay type: cell-based; conditions: TH-positive neurons, 3 days post-plating
Description: FIG. 6 uses click chemistry to label newly synthesised proteins with AHA. […] Dopaminergic neurons are visualised by tyrosine hydroxylase (TH) staining. a) Representative images of midbrain cultures treated with increasing concentrations of Lrrk2 IN2, and stained for TH is shown. b,c) protein translation in the somas of TH-positive and TH-negative cells is shown. d) The effect of anisomycin (to inhibit translation) on mid brain culture de novo protein synthesis is shown by representative images. e) Quantitative data from d is shown. p-values are shown on the graphs above the data points to which they apply.
Methods. To measure protein translation in dopaminergic neurons, mid brain cultures were plated at densities of 500,000 cells per well on round coverslips (1.3 cm diameter) in 24-well plates. At 3 days post-plating neurons underwent FUNCAT (see example 4). Dopaminergic neurons were detected by tyrosine hydroxylase immunofluorescence. Fluorescent intensity was measured as described in example 4 (methods).

PBMCs and fibroblasts = experiment: AHA labelling, biotin-alkyne enrichment and anti-biotin-HRP immunoblot of nascent proteins in PBMCs and fibroblasts; assay type: cell-based, human; conditions: AHA-labelled PBMCs and fibroblasts, streptavidin bead purification
Description: Patient samples were from the NINDS-Coriell Institute in the USA, the European Biobank in Milan and the Turku University Hospital (T.U.H.) cohort in Finland. a) A heat map showing intensity values for MS/MS-identified nascent proteins from AHA-labelled cells (fibroblasts and PBMCs). Nascent proteins were isolated following covalent linkage to alkyne-agarose beads. After tryptic digestion, the released peptides were sequenced by mass spectrometry and identified using Maxquant software. As negative controls to determine non-specific protein binding, cells were labelled with methionine instead of AHA. […] This approach yields a set of peptides that can be rapidly quantitated using a mass spectrometer using data dependant acquisition (DDA) using Selected Reaction Monitoring or Parallel Reaction Monitoring or by data independent acquisition (DIA) or using other types of mass spectrometry methods. […] It is compared to samples that were labelled with methionine instead of AHA. […]
Sepharose was washed 2× with 1 ml LiCl buffer (500 mM LiCl2, 100 mM Tris, pH 7.6, 0.1% TX100, 1 mM DTT), followed by 4×1 ml PBS washes. […] Samples were either in-gel digested with trypsin for MS/MS identification (example 1) or transferred to nitrocellulose for quantitative immunoblot detection using an anti-biotin, horse-radish peroxidase (HRP)-conjugated antibody (Cell Signalling Technology) (example 9b). […]

dopaminergic neurons [3] = experiment: Rotenone-induced neurite atrophy of TH-positive dopaminergic neurons in midbrain cultures; assay type: cell-based, rat; conditions: 24 h; for effect on rotenone induced loss of neurites in dopaminergic neurons: LRRK2-IN1 1 μM, GSK-2578215A 1 μM, MLi-2 10 or 50 nM, with rotenone
Method: The cultures were immunostained for Tyrosine hydroxylase to identify dopaminergic neurons. The percentage of dopaminergic, TH-positive cells that had intact neurites are shown. […] Mean data +/− standard deviation from two independent experiments are shown. Over 300 cells were scored per condition. b) A representative fluorescence micrograph showing TH immunostaining (green) dopaminergic neurons is shown. (c,d) Treatment with three structurally different LRRK2 inhibitors, LRRK2-IN1 (1 μM), GSK-2578215A (1 μM) or MLi-2 (10 or 50 nM) prevented rotenone induced loss of neurites in the dopaminergic neurons. […] Standard errors of the mean are shown. #, p<0.0001.
Methods. Rotenone treatment of cell cultures—Midbrain neurons from P0 rat were plated at a density of 200,000 cells per well. At 3 days in vitro, cells were treated with rotenone in DMSO with or without IN1, GSK-2578215A of MLi-2 at the concentrations indicated. After 24 h, cells were fixed with 4% PFA in PBS and tyrosine hydroxylase (TH) was detected by standard immunostaining methods obvious to those skilled in the art. Cells were imaged using a Zeiss AxioVert 200M microscope. To measure atrophy, the % of TH-positive neurons with intact neurites was scored.

patient skin fibroblasts = experiment: Nascent protein synthesis (AHA/Alexa-488) in PD patient skin fibroblasts; assay type: cell-based, human; conditions: sporadic and G2019S PD fibroblasts; 1 μM IN1 or 0.01 μM MLi-2
Method: Methods. For FIG. 7, we measured mRNA translation in fibroblasts cultivated from patient skin biopsies using the non-canonical labelling approach outlined in example 4 with the following modifications. Fibroblasts were passaged upon reaching 95% confluence and assayed at passage 7-9. For measurement of nascent protein synthesis, fibroblasts at 48 h post plating were depleted of methionine and incubated with AHA, followed by AHA-click conjugation of Alexa-488 as described in the methods section of example 4. Average somatic fluorescent intensities were measured. As not all fibroblast lines could be assayed simultaneously, patient lines were paired with one or more control lines of equivalent passage and assayed on the same day.

Lrrk2 [4] = molecular target: Lrrk2 (Homo sapiens, UniProt Q5S007); conditions: blocks Lrrk2; read-out: biochemical IC50; cited from earlier work
BHK21 cells = experiment: Protein translation by AHA labelling and click Alexa-488 in rotenone-treated BHK21 cells; assay type: cell-based; conditions: rotenone 100 nM, 1 μM LRRK2-IN1
Method: Furthermore, LRRK2-G2019S directly impairs protein translation in a reconstituted translation system. a) LRRK2 activity is inferred using a phospho-specific antibody ([…]) that recognises the active form of LRRK2. b) Quantitative data from 6 independent repeats as shown in (a). c, d) To determine whether inhibition of LRRK2 kinase activity could recover normal protein translation in cultured cells, BHK21 cells were treated with or without rotenone (100 nM) in the presence or absence of the indicated concentration of LRRK2-IN1. Protein translation was measured using non-canonical amino acid labelling with AHA followed by copper-catalysed click addition of alkyne-Alexa-488. Representative fluorescent micrographs (c) and quantitative data (d) are shown. […] Standard errors of the mean are plotted. #, p<0.0001.
To determine whether inhibition of LRRK2 activity could recover normal translation in BHK21 cells following rotenone treatment, BHK21 cells with or without prior treatment (30 min) with LRRK2 inhibitor (1 or 10 μM of IN1) were treated with rotenone or carrier (control) as indicated. Translation was visualized following AHA labeling and immunofluorescence quantified as earlier.

hippocampal neurons [5] = experiment: S35-methionine metabolic labelling of de novo protein synthesis in hippocampal neurons; assay type: cell-based; conditions: rotenone 0.01-10 μM, 2 hr
Method: Methods. Measurement of protein translation using various S35-methioine-labelling—In order to model PD in vitro, hippocampal neurons were metabolically labelled with S35-methionine. Hippocampal neurons in 24 well plates were transferred to Met/Cys-free medium (Invitrogen, Gibco). Cells were treated with for 30 min 37 C, 5% CO2. 50 μl per well of labeling medium (100 μCi Met-S35/ml) was added and cells grown at 37°, 5% CO2 for 2 hr in the presence or absence of rotenone (0.01-10 μM). Cells were washed and lysed in 75 μl Laemmli lysis buffer. Samples were separated by SDS PAGE, incubated with EN3HANCE (NEN), gels dried and exposed to auto-radiographic film with intensifying screen to determine relative levels of de novo protein synthesis.

Lrrk2 [6] = molecular target: T1, Lrrk2 (Mesocricetus auratus, UniProt A0A1U7Q7Z2); experiment: LRRK2 activity by phospho-S935-LRRK2 immunoblot in BHK21 cells; assay type: cell-based; conditions: intact BHK21 cells, rotenone 4 h
T1 construct: endogenous in cells; host or cells: BHK21 cells
Method: Methods. To examine the effect of rotenone treatment on LRRK2 activity, BHK21 cells were treated with or without the indicated dose of rotenone for 4 h. Cells were lysed in Laemmli buffer and proteins separated by SDS PAGE. LRRK2 activity was determined by immunoblotting with an antibody detecting phospho-S935-LRRK2. Blots were reprobed with an antibody detecting LRRK2 to establish loading variability. LRRK2 activity was quantified by densitometry of gel exposures captured using the Gel Doc XR system (Biorad).

Chain of Lrrk2 (Homo sapiens, UniProt Q5S007) (Q5S007 whole entry, species assumed): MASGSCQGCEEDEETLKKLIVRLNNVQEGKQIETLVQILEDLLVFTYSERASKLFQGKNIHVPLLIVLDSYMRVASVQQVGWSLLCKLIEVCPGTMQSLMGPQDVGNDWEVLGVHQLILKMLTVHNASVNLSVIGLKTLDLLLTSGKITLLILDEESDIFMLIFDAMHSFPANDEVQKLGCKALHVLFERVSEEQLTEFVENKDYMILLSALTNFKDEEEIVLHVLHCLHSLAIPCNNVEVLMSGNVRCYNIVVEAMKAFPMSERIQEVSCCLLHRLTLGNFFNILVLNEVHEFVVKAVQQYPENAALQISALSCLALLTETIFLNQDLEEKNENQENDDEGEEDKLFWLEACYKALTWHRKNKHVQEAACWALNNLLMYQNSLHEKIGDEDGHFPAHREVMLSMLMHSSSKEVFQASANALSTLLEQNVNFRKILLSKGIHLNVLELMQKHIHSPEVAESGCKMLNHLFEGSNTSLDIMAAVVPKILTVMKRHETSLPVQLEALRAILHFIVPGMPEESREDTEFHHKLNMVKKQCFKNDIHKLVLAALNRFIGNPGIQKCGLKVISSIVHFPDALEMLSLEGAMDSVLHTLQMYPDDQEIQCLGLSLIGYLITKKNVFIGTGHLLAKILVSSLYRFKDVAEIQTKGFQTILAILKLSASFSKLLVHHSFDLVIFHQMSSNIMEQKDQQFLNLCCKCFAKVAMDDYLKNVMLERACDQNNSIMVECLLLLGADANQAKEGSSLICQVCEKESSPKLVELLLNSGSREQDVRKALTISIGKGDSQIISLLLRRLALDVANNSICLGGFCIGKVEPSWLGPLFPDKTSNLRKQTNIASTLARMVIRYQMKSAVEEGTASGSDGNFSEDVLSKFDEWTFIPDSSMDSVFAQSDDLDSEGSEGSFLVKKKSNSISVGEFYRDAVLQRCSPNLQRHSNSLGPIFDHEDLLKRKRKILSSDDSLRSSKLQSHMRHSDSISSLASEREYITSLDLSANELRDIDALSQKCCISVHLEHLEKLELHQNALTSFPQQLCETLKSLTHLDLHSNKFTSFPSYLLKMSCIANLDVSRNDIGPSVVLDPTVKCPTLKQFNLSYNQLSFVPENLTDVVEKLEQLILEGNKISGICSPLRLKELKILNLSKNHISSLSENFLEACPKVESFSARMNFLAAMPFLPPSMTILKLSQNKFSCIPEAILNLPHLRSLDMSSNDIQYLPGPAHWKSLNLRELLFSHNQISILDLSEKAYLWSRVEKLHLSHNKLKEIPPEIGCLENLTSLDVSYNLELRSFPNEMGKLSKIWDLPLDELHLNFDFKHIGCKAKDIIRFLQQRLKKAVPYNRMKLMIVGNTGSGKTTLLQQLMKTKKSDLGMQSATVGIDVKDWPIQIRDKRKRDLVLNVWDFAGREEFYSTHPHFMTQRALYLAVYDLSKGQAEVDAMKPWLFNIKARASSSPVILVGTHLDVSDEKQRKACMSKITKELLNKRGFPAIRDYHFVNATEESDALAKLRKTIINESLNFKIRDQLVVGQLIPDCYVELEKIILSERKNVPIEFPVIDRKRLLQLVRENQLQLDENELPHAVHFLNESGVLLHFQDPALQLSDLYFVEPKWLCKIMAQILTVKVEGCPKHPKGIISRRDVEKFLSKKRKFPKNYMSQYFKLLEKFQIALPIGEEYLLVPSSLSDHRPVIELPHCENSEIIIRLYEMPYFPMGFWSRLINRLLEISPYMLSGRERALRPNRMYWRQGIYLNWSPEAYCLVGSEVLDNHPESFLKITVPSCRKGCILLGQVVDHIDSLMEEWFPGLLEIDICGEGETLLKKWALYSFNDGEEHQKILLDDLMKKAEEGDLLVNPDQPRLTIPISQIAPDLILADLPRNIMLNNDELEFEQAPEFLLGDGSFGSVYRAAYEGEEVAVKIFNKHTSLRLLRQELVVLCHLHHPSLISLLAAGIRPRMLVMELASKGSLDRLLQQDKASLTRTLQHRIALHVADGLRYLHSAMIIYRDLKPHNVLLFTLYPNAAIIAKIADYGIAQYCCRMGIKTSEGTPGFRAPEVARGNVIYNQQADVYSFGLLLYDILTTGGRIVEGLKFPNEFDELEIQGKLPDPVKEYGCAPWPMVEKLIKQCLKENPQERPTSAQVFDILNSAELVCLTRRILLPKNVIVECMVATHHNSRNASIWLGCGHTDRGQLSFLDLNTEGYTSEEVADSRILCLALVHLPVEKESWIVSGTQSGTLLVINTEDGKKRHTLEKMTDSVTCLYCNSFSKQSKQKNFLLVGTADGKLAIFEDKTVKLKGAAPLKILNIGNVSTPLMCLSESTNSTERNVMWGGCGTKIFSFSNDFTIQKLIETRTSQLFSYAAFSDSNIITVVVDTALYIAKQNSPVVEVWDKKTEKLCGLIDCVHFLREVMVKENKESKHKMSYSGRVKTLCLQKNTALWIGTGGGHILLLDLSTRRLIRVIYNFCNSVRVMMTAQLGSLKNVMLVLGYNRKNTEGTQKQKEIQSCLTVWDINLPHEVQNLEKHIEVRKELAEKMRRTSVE
T1 sequence (A0A1U7Q7Z2 1-2527): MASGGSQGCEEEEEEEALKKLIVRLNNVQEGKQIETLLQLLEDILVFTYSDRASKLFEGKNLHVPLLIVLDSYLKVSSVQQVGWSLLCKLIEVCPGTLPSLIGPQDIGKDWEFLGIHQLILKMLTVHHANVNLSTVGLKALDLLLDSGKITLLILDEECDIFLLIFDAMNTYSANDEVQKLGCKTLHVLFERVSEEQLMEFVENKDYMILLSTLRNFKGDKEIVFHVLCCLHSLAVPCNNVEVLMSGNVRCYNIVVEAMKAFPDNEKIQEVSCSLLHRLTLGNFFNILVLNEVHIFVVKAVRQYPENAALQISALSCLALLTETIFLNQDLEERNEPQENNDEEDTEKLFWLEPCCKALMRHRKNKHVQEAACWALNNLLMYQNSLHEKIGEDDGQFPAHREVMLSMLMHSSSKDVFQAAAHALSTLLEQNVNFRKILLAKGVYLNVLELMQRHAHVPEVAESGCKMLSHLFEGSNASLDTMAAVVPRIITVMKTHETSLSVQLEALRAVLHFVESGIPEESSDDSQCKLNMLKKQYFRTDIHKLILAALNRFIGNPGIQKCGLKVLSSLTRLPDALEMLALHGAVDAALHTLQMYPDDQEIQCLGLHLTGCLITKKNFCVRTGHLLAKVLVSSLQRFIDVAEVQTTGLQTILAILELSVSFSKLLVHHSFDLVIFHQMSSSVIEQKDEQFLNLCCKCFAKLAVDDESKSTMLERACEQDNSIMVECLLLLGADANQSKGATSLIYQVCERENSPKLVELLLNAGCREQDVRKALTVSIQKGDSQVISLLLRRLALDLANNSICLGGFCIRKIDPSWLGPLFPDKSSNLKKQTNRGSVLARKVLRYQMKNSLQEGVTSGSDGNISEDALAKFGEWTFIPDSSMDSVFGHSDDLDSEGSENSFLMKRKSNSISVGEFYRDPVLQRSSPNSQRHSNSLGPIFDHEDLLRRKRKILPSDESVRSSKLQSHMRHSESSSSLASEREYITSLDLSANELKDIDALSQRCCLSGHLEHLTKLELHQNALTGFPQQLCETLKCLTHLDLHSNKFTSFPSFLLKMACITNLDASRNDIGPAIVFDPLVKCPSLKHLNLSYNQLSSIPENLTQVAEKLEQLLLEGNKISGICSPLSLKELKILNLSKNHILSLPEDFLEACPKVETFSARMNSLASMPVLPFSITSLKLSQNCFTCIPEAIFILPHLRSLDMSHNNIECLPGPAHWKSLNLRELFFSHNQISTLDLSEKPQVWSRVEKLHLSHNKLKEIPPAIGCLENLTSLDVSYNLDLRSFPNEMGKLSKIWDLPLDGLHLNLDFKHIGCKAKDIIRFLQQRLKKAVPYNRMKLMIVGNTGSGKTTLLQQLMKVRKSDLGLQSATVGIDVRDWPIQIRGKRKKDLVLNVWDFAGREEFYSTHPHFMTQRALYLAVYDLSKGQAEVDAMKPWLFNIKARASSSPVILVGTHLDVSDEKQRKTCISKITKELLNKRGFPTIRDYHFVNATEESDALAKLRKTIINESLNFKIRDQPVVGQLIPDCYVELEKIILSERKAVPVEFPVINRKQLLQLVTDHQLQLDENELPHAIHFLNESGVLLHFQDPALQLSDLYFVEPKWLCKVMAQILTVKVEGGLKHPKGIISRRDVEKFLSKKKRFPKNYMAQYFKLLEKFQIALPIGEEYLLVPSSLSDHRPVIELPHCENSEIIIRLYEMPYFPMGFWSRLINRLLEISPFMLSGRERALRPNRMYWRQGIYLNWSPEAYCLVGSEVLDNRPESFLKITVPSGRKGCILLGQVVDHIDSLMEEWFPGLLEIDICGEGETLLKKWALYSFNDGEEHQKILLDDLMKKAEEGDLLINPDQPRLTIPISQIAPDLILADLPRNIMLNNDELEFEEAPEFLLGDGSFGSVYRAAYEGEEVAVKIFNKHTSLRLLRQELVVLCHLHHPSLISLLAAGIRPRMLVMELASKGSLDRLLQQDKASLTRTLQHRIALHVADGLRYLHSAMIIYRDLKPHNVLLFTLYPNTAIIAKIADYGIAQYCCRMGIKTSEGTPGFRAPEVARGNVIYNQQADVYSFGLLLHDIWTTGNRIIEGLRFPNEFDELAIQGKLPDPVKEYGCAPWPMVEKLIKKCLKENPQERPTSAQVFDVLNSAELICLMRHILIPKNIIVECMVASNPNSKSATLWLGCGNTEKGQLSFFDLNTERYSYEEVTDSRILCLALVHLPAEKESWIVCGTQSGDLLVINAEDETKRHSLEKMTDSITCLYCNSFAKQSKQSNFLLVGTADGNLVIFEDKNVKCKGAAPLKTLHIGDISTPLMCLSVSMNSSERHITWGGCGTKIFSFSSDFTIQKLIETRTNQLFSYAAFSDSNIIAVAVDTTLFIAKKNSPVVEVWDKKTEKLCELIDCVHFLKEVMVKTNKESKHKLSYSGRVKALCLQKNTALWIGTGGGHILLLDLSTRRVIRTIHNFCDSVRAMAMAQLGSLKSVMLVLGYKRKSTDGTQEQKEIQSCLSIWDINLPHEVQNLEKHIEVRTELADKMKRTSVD

Compound	level of de novo protein synthesis (fluorescence intensity) (hippocampal neurons [1])	effect on rotenone induced loss of neurites in dopaminergic neurons (dopaminergic neurons [3])	dose (as low as) at which protein synthesis was significantly increased (hippocampal neurons [1]) [µM]	reversal of decreased protein synthesis in PD patient fibroblasts (patient skin fibroblasts)	other results
COc1ccc(C[C@H]2NC[C@H](O)[C@H]2OC(C)=O)cc1 [Anisomycin]	effectively inhibited				protein translation (fluorescence) (dopaminergic neurons [2]): effectively reduced; anti-biotin immunoblot signal of nascent proteins (PBMCs and fibroblasts): no signal
O=C(Nc1cccnc1)c1cc(-c2ccnc(F)c2)ccc1OCc1ccccc1 [GSK-2578215A]		prevented	0.1		
COc1cc(C(=O)N2CCC(N3CCN(C)CC3)CC2)ccc1Nc1ncc2c(n1)N(C)c1ccccc1C(=O)N2C [LRRK2-IN1]		prevented	0.1	reversed	IC50 (Lrrk2 [4]): 10 nM; protein translation level after rotenone (BHK21 cells): recovered to control level
3-(4-Pyrinimidyl) Indazole [MLi-2]	increased	prevented	0.01	reversed to a normal level	
C=C(C)[C@H]1Cc2c(ccc3c2O[C@@H]2COc4cc(OC)c(OC)cc4[C@@H]2C3=O)O1 [Rotenone]					percentage of TH-positive cells with intact neurites (dopaminergic neurons [3]; rotenone 0-100 nM): induced atrophy; also recorded: dose dependent loss of neurites; de novo protein synthesis (S35-methionine labelling) (hippocampal neurons [5]): dose-dependently decreased; LRRK2 activity (phospho-S935-LRRK2) (Lrrk2 [6]): dose dependently increased
